Experimental findings from patent publication EP4772510A2, “BENZAZEPINONE COMPOUND AND USE THEREOF” (HANGZHOU BIO-SINCERITY PHARMA-TECHCO., LTD., priority 2023, dated 2025) are described below.

Series [1] relates to HT-29 cells. The series is described as follows: Inhibition of TNF-α-induced necroptosis of HT-29 cells (SRB method). Type of series: cell-based, human. The following applies: 18 h. In short, it runs like this: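 HT-29 cells (3 × 10^4/well, 24 h) were treated 18 h with compound (8 three-fold dilutions, 1000.00-0.46 nM, duplicate) plus TNF-α 20 ng/mL, BV6 2 µM and Z-VAD-FMK 20 µM final, at 37 °C. Viability was read by SRB absorbance; EC50 values were fitted.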

The nature of series [2]: Pharmacokinetic experiment in SD rats. The following applies: p.o, 5 mg/kg vs i.v, 0.5 mg/kg.
Description: (§1) Example 59: Pharmacokinetic Experiment of Compounds in SD Rats
(§2) SD rats, male, 6-8 weeks old, purchased from Zhejiang Vital River Laboratory Animal Technology Co., Ltd., production license No.: SCXK (Zhejiang) 2019-0001. The animals were maintained in an SPF-grade animal room of Hangzhou Bio-Sincerity Pharma-Tech Co., Ltd., with the experimental animal use license No. of SYXK (Zhejiang) 2021-0014. The animals were used after being acclimatized for at least one week. All experiments were performed in strict compliance with the regulations on experimental animals.
(§3) Four hours after administration, food was provided.
(§4) After administration to SD rats, about 300 µL of blood was collected from the orbit of each animal and anticoagulated with EDTA-Na2. […] The collected blood was placed in an ice bath and centrifuged within 1 h to separate plasma (centrifugation conditions: 2000× g, 10 min, 4 °C). 50 µL of plasma sample was taken, subjected to protein precipitation, and then assayed by UHPLC-MS. The assay data were analyzed and processed using WinNonLin8.1 pharmacokinetic software to obtain pharmacokinetic parameters.
The nature of series [3]: in vivo. Particulars: rat.
Description: as §1, §2, §3, §4
[4] abbreviates: TNF-α 20 ng/mL + BV6 2 µM + Z-VAD-FMK 20 µM.
Setting [5] is: Homo sapiens, HT-29, TNF-α 20 ng/mL + BV6 2 µM + Z-VAD-FMK 20 µM.
Setting [6] is: male, SD, plasma, intravenous, 0.5 mg/kg.
The mark [7] stands for this setting: male, SD, plasma, oral, 5 mg/kg.

As for `O=C(NC1CCc2cc(C#Cc3cnn(C(F)F)c3)cc3c2N(CC3)C1=O)c1ncn(Cc2c(F)cccc2F)n1` (stereo not drawn) [III-17, 1-(2,6-difluorobenzyl)-N-(9-((1-(difluoromethyl)-1H-pyrazol-4-yl)ethynyl)-4-oxo-1,2,3,4,6,7-hexahydroazepino[3,2,1-hi]indol-3-yl)-1H-1,2,4-triazole-3-carboxamide], in series [1] (setting [4]), the EC50 is less than 5 nM.
For the compound `C#Cc1cc2c3c(c1)CCN3C(=O)C(NC(=O)c1ncn(Cc3c(F)cccc3F)n1)CC2` (stereo not drawn) [III-26, 1-(2,6-difluorobenzyl)-N-(9-ethynyl-4-oxo-1,2,3,4,6,7-hexahydroazepino[3,2,1-hi]indol-3-yl)-1H-1,2,4-triazole-3-carboxamide], in series [1] (setting [5]), the EC50 was less than 5 nM. Besides, in series [2], the “Fabs (%)” value is listed as 51.2 ± 3.29%. In series [3] (in vivo, iv, 0.5 mg/kg), this compound had an AUC(0-t) of 550 ± 34.5 ng·h/mL, a Cmax of 896 ± 158 ng/mL, a clearance of 15.2 ± 0.98 mL/min/kg and a half-life of 0.44 ± 0.03 h. In series [3] (in vivo, po, 5 mg/kg), the AUC(0-t) came to 2810 ± 177 ng·h/mL, the CL/F was 29.6 ± 1.95 mL/min/kg, the Cmax was 1370 ± 389 ng/mL and the half-life is 3.98 ± 2.49 h.
As to `Cn1cc(C#Cc2cc3c4c(c2)CCN4C(=O)C(NC(=O)c2ncn(Cc4ccc(F)c(F)c4)n2)CC3)cn1` (stereo not drawn) [III-12, 1-(3,4-difluorobenzyl)-N-(9-((1-methyl-1H-pyrazol-4-yl)ethynyl)-4-oxo-1,2,3,4,6,7-hexahydroazepino[3,2,1-hi]indol-3-yl)-1H-1,2,4-triazole-3-carboxamide], the EC50 in series [1] (setting [5]) fell in the range of 10 to 100 nM. Moreover, in series [2], the “Fabs (%)” value is listed as 64.54 ± 10.10%. In series [3] (in vivo, iv, 0.5 mg/kg), this compound showed an AUC(0-t) of 8830 ± 1290 ng·h/mL, a Cmax of 1300 ± 23.2 ng/mL, a clearance of 0.91 ± 0.18 mL/min/kg and a half-life of 5.78 ± 2.23 h. Also, in series [3] (in vivo, po, 5 mg/kg), the AUC(0-t) was 60400 ± 9300 ng·h/mL, the CL/F was 1.39 ± 0.2 mL/min/kg, the Cmax was 7330 ± 781 ng/mL and the half-life is 3.19 ± 0.52 h.
Turning to “N-(9-((1-(difluoromethyl)-1H-pyrazol-4-yl)ethynyl)-4-oxo-1,2,3,4,6,7-hexahydroazepino[3,2,1-hi]indol-3-yl)-1-(4-methylbenzyl)-1H-1,2,4-triazole-3-carboxamide [III-25]”, the EC50 in series [1] (setting [4]) was 5 to 10 nM.
Regarding `Cn1cc(C#Cc2cc3c4c(c2)CCN4C(=O)C(NC(=O)c2ncn(Cc4c(F)cccc4F)n2)CC3)cn1` (stereo not drawn) [III-1, 1-(2,6-difluorobenzyl)-N-(9-((1-methyl-1H-pyrazol-4-yl)ethynyl)-4-oxo-1,2,3,4,6,7-hexahydroazepino[3,2,1-hi]indol-3-yl)-1H-1,2,4-triazole-3-carboxamide], in series [1] (setting [5]), the EC50 is less than 5 nM. Moreover, in series [2], the “Fabs (%)” value was 111.92 ± 11.87%. In series [3] (in vivo, iv, 0.5 mg/kg), this compound showed an AUC(0-t) of 1980 ± 204 ng·h/mL, a Cmax of 1430 ± 181 ng/mL, a clearance of 5.54 ± 2.45 mL/min/kg and a half-life of 2.38 ± 1.76 h. In series [3] (in vivo, po, 5 mg/kg), the AUC(0-t) turned out to be 22600 ± 2370 ng·h/mL, the CL/F turned out to be 3.7 ± 0.39 mL/min/kg, the Cmax turned out to be 4100 ± 520 ng/mL and the half-life is 2.94 ± 0.16 h.
`Cn1cc(C#Cc2cc3c4c(c2)CCN4C(=O)C(NC(=O)c2ncn(Cc4cc(F)ccc4F)n2)CC3)cn1` (stereo not drawn) [III-10, 1-(2,5-difluorobenzyl)-N-(9-((1-methyl-1H-pyrazol-4-yl)ethynyl)-4-oxo-1,2,3,4,6,7-hexahydroazepino[3,2,1-hi]indol-3-yl)-1H-1,2,4-triazole-3-carboxamide]: in series [1] (setting [5]), the EC50 is less than 5 nM. Also, the “Fabs (%)” value in series [2] came to 51.37 ± 3.03%. In series [3] (in vivo, iv, 0.5 mg/kg), this compound showed an AUC(0-t) of 5340 ± 1330 ng·h/mL, a Cmax of 1940 ± 319 ng/mL, a clearance of 1.6 ± 0.39 mL/min/kg and a half-life of 2.37 ± 0.64 h. In series [3] (in vivo, po, 5 mg/kg), this compound had an AUC(0-t) of 27700 ± 1560 ng·h/mL, a CL/F of 3.01 ± 0.18 mL/min/kg, a peak concentration (Cmax) of 4660 ± 132 ng/mL and a half-life of 2.57 ± 0.69 h.
Consider `CN1C(=O)[C@@H](NC(=O)c2nnc(Cc3ccccc3)[nH]2)COc2ccccc21` [GSK2982772, (S)-5-benzyl-N-(5-methyl-4-oxo-2,3,4,5-tetrahydrobenzo[b][1,4]oxazepin-3-yl)-4H-1,2,4-triazole-3-carboxamide, reference compound], for which the EC50 in series [1] (setting [5]) lay within 5 to 10 nM. Moreover, the “Fabs (%)” value in series [2] is recorded as 39.13 ± 11.8%. Also, in series [3] (setting [6]), the AUC(0-t) came out at 5560 ng·h/mL, the concentration peaked (Cmax) at 4320 ng/mL, the clearance was 1.5 mL/min/kg and the half-life is 3.28 h. In series [3] (setting [7]), this compound had an AUC(0-t) of 21700 ± 6530 ng·h/mL, a CL/F of 4.03 ± 1.05 mL/min/kg, a Cmax of 5820 ± 1210 ng/mL and a half-life of 3.06 ± 0.41 h.
For the compound `O=C(NC1CCc2cc(C#Cc3cnn(C(F)F)c3)cc3c2N(CC3)C1=O)c1ncn(Cc2cc(F)ccc2F)n1` (stereo not drawn) [III-19, 1-(2,5-difluorobenzyl)-N-(9-((1-(difluoromethyl)-1H-pyrazol-4-yl)ethynyl)-4-oxo-1,2,3,4,6,7-hexahydroazepino[3,2,1-hi]indol-3-yl)-1H-1,2,4-triazole-3-carboxamide], in series [1] (setting [5]), the EC50 was less than 5 nM. For the same compound, the “Fabs (%)” value in series [2] turned out to be 121.33 ± 40.32%. In series [3] (in vivo, iv, 0.5 mg/kg), the AUC(0-t) was 703 ± 191 ng·h/mL, the concentration peaked (Cmax) at 662 ± 110 ng/mL, the clearance was 12.2 ± 3.04 mL/min/kg and the half-life is 1.37 ± 0.2 h. In series [3] (in vivo, po, 5 mg/kg), this compound gave an AUC(0-t) of 8130 ± 3570 ng·h/mL, a CL/F of 10.3 ± 3.12 mL/min/kg, a Cmax of 1480 ± 545 ng/mL and a half-life of 2.96 ± 0.69 h.
Regarding `O=C(NC1CCc2cc(C#Cc3cnn(C(F)F)c3)cc3c2N(CC3)C1=O)c1ncn(Cc2ccccc2F)n1` (stereo not drawn) [III-21, N-(9-((1-(difluoromethyl)-1H-pyrazol-4-yl)ethynyl)-4-oxo-1,2,3,4,6,7-hexahydroazepino[3,2,1-hi]indol-3-yl)-1-(2-fluorobenzyl)-1H-1,2,4-triazole-3-carboxamide], in series [1] (setting [5]), the EC50 is less than 5 nM. In addition, the “Fabs (%)” value in series [2] worked out at 97.15 ± 40.17%. In addition, in series [3] (in vivo, iv, 0.5 mg/kg), the AUC(0-t) worked out at 651 ± 66.4 ng·h/mL, the Cmax amounted to 619 ± 65.8 ng/mL, the clearance was found to be 12.8 ± 1.27 mL/min/kg and the half-life is 1.19 ± 0.1 h. In series [3] (in vivo, po, 5 mg/kg), the AUC(0-t) was found to be 6250 ± 2790 ng·h/mL, the CL/F came out at 14.9 ± 6.92 mL/min/kg, the Cmax was determined as 1280 ± 509 ng/mL and the half-life is 2.66 ± 0.69 h.
